Test results from US6355659B1, “4-(4-Chlorophenyl)-1236-tetrahydro-1(1H-124-triazol-1-yl)butty)pyrideine and salts thereof; pharmaceutical compositions and method of treating psychoses utilizing same” (Laboratorios Del Dr. Esteve, S.A., priority 1994, dated 2002).
Counter-ions that a name gives are not always drawn. Like-named read-outs stand apart in the source and are kept apart here.

Assays:
[1] = system: catalepsy; test: Induction of catalepsy in rats; format: in vivo; settings: s.c.
Source text: The induction of catalepsy in rats [J. Robert et al., J. Pharmacol. Exp. Ther., 1986, 239, 124] is a parameter that is commonly employed for determining the ability of antipsychotics to induce extrapyramidal effects. The typical antipsychotics are those which, in spite of being very powerful in specific tests of antipsychotic activity, induce extrapyramidal effects, and this is detected in the catalepsy test. The best known of the typical antipsychotics is haloperidol, whereas the best known of the atypical antipsychotics is clozapine.

[2] = system: protein c-fos; test: Induction of the protein c-fos in various brain areas in the rat (Western blot); format: in vivo; settings: sc; for activity at 30 mg/kg: rat, acute treatment, 30 mg/kg s.c.
Source text: Induction of the Protein c-fos in Various Brain Areas in the Rat
Acute treatment with various antipsychotics is characterized by the induction of the protein c-fos, owing to the rapid induction off the c-fos gene in various areas of the limbic and extrapyramidal systems [M. Dragunow et al., Neuroscience, 1990, 37, 287-294; J. C. Miller, J. Neurochem., 1990, 54, 1453-1455; A. Y. Deutch et al., Mol. Cell. Neurosci., 1992, 3, 332-341; T. V. Nguyen et al., Proc. Natl. Acad. Sci. USA, 1992, 89, 4270-4274; G. S. Robertson and H. C. Fibinger, Neuroscience, 1992, 46, 315-328]. The patterns of induction of the protein depend on whether the antipsychotic is typical or atypical [G. S. Robertson et al., J. Pharmacol. Exp. Ther., 1994, 271, 1058-1066; G. S. Robertson and H. C. Fibinger, Neuroscience, 1992, 46, 315-328]. These changes in expression of c-fos can be investigated by extraction of the proteins from the brain areas of interest, and analysis of the levels by electrophoresis (Western blot).

[3] = molecular target: T1, 5-HT1A (Homo sapiens, UniProt P08908); test: 5-HT1A receptor affinity; format: binding
T1 sequence (P08908 1-422): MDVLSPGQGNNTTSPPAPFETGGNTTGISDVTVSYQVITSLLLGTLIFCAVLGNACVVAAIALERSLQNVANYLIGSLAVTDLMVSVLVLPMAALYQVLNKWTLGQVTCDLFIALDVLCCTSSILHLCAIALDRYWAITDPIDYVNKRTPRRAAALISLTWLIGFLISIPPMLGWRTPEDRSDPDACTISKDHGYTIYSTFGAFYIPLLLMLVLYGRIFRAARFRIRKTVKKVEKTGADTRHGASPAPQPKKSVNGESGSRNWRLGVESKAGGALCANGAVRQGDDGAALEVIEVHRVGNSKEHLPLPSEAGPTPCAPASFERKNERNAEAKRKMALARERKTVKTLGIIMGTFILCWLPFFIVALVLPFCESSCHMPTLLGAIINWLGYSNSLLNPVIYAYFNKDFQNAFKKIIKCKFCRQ

[4] = molecular target: SIGMA-1 (σ1) (Homo sapiens, UniProt Q99720); test: Sigma-1 receptor affinity; format: binding; settings: SIGMA-1 (σ1) receptor
[5] = molecular target: SIGMA-2 (σ2) (Homo sapiens, UniProt Q5BJF2); test: Sigma-2 receptor affinity; format: binding; settings: SIGMA-2 (σ2) receptor
Sequence of SIGMA-2 (σ2) (Q5BJF2 whole entry): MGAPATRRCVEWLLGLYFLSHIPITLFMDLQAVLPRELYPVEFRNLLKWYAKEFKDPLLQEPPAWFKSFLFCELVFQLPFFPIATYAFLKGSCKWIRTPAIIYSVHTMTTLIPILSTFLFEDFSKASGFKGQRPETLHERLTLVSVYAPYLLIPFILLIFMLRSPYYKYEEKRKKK

Sequence of SIGMA-1 (σ1) (Q99720 whole entry): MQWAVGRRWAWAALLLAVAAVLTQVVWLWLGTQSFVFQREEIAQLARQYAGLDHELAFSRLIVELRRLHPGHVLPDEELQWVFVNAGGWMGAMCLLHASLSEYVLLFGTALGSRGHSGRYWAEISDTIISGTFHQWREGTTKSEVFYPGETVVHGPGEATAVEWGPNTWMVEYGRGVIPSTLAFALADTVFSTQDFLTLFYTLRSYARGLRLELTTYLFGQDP

SMILES	Induction of catalepsy, DE-50 [1]	Induction of catalepsy, DE-50 ([1]; listed as haloperidol) [mg/kg]	activity at 30 mg/kg ([2]; read-out: Fos immunoreactivity % change relative to control, Dorsolateral groove) [%]	activity at 30 mg/kg ([2]; read-out: Fos immunoreactivity % change relative to control, Medial area of prefrontal cortex) [%]	activity at 30 mg/kg ([2]; read-out: Fos immunoreactivity % change relative to control, Nucleus accumbens) [%]	Ki [3] [nM]	activity at 20 mg/kg ([2]; read-out: Fos immunoreactivity % change relative to control, Dorsolateral groove, rat, acute treatment, 20 mg/kg s.c., % of saline group) [%]	activity at 20 mg/kg ([2]; read-out: Fos immunoreactivity % change relative to control, Medial area of prefrontal cortex, rat, acute treatment, 20 mg/kg s.c., % of saline group) [%]	activity at 20 mg/kg ([2]; read-out: Fos immunoreactivity % change relative to control, Nucleus accumbens, rat, acute treatment, 20 mg/kg s.c., % of saline group) [%]	Ki [4] [nM]	Ki [5] [nM]
O=C(CCCN1CCC(O)(c2ccc(Cl)cc2)CC1)c1ccc(F)cc1 [Haloperidol, haloperidol]	DE-50 = 0.14 mg/kg,	0.14	–	–	–	–	–	–	–	–	–
CN1CCN(C2=Nc3cc(Cl)ccc3Nc3ccccc32)CC1 [Clozapine, clozapine]	Inactive up to 80 mg/kg	–	110	134	118	–	–	–	–	–	–
Clc1ccc(C2=CCN(CCCCn3cncn3)CC2)cc1 [Example 2, 4-(4-chlorophenyl)-1,2,3,6-tetrahydro-1-[4-(1H-1,2,4-triazol-1-yl)butyl]pyridine hydrochloride]	–	–	–	–	–	600	104	134	118	3.7	465
